Reference: the kinase profiling compilation of Christmann-Franck et al. (2016)

Legend:
Details in all cases: compound 10.0 µM
TAOK1 (human) = TAOK1 (human) (UniProt Q7L7X3)
RET (human) = RET (human) (UniProt P07949)
ITK (human) = ITK (human) (UniProt Q08881)
CHUK (human) = CHUK (human) (UniProt O15111)
PLK2 (human) = PLK2 (human) (UniProt Q9NYY3)
GRK7 (human) = GRK7 (human) (UniProt Q8WTQ7)
MAP3K11 (human) = MAP3K11 (human) (UniProt Q16584)
EIF2AK2 (human) = EIF2AK2 (human) (UniProt P19525)
CLK4 (human) = CLK4 (human) (UniProt Q9HAZ1)
HCK (human) = HCK (human) (UniProt P08631)
[1] = system: RET (human), P07949 [M918T]
[2] = molecular target: JAK3 JH1 catalytic (human) (UniProt P52333)
STK33 (human) = STK33 (human) (UniProt Q9BYT3)
TYRO3 (human) = TYRO3 (human) (UniProt Q06418)
RIOK3 (human) = RIOK3 (human) (UniProt O14730)
CSNK2A2 (human) = CSNK2A2 (human) (UniProt P19784)
ULK3 (human) = ULK3 (human) (UniProt Q6PHR2)
MAP3K3 (human) = MAP3K3 (human) (UniProt Q99759)
PRKCI (human) = PRKCI (human) (UniProt P41743)
MAP3K1 (human) = MAP3K1 (human) (UniProt Q13233)
CDK17 (human) = CDK17 (human) (UniProt Q00537)
EPHA3 (human) = EPHA3 (human) (UniProt P29320)
PRKX (human) = PRKX (human) (UniProt P51817)
EPHB3 (human) = EPHB3 (human) (UniProt P54753)
MKNK1 (human) = MKNK1 (human) (UniProt Q9BUB5)
SBK1 (human) = SBK1 (human) (UniProt Q52WX2)
ACVR1 (human) = ACVR1 (human) (UniProt Q04771)
PRKD1 (human) = PRKD1 (human) (UniProt Q15139)
BMPR1B (human) = BMPR1B (human) (UniProt O00238)
LIMK1 (human) = LIMK1 (human) (UniProt P53667)
BRSK2 (human) = BRSK2 (human) (UniProt Q8IWQ3)
RIOK1 (human) = RIOK1 (human) (UniProt Q9BRS2)
TESK1 (human) = TESK1 (human) (UniProt Q15569)
BRSK1 (human) = BRSK1 (human) (UniProt Q8TDC3)
[3] = molecular target: JAK1 JH2 pseudokinase (human) (UniProt P23458)
CLK3 (human) = CLK3 (human) (UniProt P49761)
CDK4 CCND3 (human) = CDK4 CCND3 (human) (UniProt P11802+P30281)
CSNK1A1 (human) = CSNK1A1 (human) (UniProt P48729)
SRPK2 (human) = SRPK2 (human) (UniProt P78362)
EPHB1 (human) = EPHB1 (human) (UniProt P54762)
OXSR1 (human) = OXSR1 (human) (UniProt O95747)

Chain of RET (human) (P07949 whole entry, looked up): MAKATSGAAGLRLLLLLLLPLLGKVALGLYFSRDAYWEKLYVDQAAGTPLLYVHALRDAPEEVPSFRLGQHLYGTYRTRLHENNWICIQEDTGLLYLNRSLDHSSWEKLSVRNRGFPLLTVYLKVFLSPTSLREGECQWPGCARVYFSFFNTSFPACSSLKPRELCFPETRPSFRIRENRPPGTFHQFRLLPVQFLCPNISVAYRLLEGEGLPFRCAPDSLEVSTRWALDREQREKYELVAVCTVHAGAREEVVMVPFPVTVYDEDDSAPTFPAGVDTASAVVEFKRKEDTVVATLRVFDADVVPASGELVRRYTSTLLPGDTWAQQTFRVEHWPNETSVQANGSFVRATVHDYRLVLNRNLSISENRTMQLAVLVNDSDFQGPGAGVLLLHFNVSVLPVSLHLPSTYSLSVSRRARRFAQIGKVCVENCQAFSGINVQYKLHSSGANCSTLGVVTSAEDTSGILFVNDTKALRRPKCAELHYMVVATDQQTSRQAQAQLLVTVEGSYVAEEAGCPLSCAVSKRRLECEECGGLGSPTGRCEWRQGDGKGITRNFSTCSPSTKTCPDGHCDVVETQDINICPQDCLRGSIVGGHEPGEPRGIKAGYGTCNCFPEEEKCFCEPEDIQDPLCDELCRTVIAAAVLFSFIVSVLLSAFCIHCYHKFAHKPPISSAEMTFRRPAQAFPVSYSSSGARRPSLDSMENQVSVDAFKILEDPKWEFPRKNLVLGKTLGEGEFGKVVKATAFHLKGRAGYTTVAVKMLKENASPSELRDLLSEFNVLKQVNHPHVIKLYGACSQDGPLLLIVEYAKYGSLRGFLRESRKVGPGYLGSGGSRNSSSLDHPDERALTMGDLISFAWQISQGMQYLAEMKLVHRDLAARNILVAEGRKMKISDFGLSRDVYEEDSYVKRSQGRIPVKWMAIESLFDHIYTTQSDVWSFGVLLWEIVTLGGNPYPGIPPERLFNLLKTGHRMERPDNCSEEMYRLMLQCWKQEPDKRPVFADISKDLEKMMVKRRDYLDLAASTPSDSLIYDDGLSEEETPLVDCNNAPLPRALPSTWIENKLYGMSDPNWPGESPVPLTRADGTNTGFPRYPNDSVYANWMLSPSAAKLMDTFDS
Chain of GRK7 (human) (Q8WTQ7 whole entry, looked up): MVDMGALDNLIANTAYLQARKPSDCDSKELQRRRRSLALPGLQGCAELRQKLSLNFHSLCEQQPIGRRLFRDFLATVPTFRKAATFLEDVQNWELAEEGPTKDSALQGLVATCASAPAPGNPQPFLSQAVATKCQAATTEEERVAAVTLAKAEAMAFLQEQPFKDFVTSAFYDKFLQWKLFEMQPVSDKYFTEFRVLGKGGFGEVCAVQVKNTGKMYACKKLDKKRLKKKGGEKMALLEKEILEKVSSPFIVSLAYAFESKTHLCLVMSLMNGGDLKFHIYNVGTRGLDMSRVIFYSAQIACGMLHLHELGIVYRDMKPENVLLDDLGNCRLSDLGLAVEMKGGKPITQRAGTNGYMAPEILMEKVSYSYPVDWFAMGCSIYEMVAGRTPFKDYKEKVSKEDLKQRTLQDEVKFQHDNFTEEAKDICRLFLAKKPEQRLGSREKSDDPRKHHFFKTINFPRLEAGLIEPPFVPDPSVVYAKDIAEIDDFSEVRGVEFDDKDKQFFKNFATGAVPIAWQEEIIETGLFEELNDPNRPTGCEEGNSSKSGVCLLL
Chain of MKNK1 (human) (Q9BUB5 whole entry, looked up): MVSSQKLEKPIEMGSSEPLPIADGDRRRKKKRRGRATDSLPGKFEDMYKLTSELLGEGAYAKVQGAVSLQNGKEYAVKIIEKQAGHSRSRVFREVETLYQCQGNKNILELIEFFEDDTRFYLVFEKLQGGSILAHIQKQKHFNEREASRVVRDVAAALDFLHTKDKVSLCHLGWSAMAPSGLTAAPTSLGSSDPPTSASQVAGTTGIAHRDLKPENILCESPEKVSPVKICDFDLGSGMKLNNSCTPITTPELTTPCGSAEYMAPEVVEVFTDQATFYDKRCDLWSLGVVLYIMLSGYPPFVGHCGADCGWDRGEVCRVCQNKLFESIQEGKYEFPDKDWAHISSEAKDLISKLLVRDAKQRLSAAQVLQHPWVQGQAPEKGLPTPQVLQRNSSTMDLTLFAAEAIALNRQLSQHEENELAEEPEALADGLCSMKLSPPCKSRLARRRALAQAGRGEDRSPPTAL
Chain of EPHA3 (human) (P29320 whole entry, looked up): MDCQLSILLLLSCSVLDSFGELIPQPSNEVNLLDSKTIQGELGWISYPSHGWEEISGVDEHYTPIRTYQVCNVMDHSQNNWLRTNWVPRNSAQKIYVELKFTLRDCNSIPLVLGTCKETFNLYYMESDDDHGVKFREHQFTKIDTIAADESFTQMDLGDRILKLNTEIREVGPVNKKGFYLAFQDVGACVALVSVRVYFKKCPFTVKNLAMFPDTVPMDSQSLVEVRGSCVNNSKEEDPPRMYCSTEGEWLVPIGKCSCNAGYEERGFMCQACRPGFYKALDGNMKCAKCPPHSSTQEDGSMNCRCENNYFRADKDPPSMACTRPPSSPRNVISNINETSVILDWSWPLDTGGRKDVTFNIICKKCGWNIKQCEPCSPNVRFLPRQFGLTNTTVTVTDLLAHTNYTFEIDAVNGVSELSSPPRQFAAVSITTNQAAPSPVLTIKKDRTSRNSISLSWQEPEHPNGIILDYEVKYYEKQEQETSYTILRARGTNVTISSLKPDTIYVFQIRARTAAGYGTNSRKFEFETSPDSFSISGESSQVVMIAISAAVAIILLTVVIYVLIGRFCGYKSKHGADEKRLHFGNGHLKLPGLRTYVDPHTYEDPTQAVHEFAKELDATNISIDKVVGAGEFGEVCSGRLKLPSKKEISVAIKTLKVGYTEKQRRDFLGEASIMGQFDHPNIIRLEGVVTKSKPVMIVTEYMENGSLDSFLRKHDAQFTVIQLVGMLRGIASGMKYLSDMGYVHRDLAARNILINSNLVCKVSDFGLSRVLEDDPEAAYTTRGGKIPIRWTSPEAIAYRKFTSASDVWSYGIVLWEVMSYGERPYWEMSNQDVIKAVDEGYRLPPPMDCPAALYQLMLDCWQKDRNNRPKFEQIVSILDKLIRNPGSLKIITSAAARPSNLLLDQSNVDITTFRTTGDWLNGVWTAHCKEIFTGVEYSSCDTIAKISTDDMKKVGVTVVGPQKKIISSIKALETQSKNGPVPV
Chain of ULK3 (human) (Q6PHR2 whole entry, looked up): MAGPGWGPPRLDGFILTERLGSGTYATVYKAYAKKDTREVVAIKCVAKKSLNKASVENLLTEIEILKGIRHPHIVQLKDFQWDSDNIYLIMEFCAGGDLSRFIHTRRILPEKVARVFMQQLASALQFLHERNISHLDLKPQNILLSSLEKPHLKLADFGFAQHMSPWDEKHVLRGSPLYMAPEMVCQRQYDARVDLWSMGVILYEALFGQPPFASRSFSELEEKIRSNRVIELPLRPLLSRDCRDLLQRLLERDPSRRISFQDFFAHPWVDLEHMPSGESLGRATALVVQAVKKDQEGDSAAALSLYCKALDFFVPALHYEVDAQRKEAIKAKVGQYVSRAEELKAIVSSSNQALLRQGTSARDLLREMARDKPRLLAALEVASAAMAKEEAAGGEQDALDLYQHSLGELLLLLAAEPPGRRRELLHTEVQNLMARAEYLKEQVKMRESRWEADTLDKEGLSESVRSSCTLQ
Chain of RIOK3 (human) (O14730 whole entry, looked up): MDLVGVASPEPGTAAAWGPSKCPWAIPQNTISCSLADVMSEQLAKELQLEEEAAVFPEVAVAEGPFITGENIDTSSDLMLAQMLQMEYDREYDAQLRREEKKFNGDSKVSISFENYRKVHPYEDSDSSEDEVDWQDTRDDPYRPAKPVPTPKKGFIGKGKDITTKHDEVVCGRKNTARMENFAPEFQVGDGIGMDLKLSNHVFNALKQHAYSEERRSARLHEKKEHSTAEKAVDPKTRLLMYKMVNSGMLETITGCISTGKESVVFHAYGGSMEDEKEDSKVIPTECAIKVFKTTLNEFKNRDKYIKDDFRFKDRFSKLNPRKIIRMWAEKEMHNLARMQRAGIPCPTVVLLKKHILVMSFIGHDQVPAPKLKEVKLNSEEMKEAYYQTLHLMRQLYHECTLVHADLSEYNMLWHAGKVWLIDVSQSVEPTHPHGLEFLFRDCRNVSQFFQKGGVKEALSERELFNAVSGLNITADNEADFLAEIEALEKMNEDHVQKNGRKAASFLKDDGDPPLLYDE
Chain of MAP3K3 (human) (Q99759 whole entry, looked up): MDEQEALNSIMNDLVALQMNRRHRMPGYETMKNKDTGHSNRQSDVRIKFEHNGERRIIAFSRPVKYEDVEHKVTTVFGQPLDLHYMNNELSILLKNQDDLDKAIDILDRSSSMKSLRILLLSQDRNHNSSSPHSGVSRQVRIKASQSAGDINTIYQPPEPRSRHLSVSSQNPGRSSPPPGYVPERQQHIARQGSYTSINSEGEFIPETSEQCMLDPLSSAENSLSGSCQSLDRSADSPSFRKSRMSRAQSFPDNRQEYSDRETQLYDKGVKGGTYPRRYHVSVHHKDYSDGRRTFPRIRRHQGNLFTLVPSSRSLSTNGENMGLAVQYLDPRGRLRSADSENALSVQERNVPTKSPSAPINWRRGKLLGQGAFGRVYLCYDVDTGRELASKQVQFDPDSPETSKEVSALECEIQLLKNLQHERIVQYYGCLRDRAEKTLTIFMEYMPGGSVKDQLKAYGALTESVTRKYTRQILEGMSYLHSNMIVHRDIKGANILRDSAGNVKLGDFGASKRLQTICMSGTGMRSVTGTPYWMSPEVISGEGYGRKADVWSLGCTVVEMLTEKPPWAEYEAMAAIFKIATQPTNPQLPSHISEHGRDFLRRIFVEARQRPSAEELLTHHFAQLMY
Chain of RET (human), P07949 [M918T] (P07949 whole entry M918T, looked up): as the sequence (P07949 whole entry, looked up) above, with M918T counted along it

Compound: CNC(=O)c1cc(Oc2ccc(NC(=O)Nc3ccc(Cl)c(C(F)(F)F)c3)cc2)cc[n+]1[O-]
- per cent of control (TAOK1 (human)): 11%
- per cent of control (RET (human)): 0%
- per cent of control (ITK (human)): 100%
- per cent of control (CHUK (human)): 6.5%
- per cent of control (PLK2 (human)): 77%
- per cent of control (GRK7 (human)): 100%
- per cent of control (MAP3K11 (human)): 89%
- per cent of control (EIF2AK2 (human)): 58%
- per cent of control (CLK4 (human)): 47%
- per cent of control (HCK (human)): 8.8%
- per cent of control [1]: 0%
- per cent of control [2]: 78%
- per cent of control (STK33 (human)): 6.9%
- per cent of control (TYRO3 (human)): 100%
- per cent of control (RIOK3 (human)): 73%
- per cent of control (CSNK2A2 (human)): 70%
- per cent of control (ULK3 (human)): 82%
- per cent of control (MAP3K3 (human)): 96%
- per cent of control (PRKCI (human)): 100%
- per cent of control (MAP3K1 (human)): 100%
- per cent of control (CDK17 (human)): 7.7%
- per cent of control (EPHA3 (human)): 4%
- per cent of control (PRKX (human)): 100%
- per cent of control (EPHB3 (human)): 100%
- per cent of control (MKNK1 (human)): 1%
- per cent of control (SBK1 (human)): 100%
- per cent of control (ACVR1 (human)): 100%
- per cent of control (PRKD1 (human)): 63%
- per cent of control (BMPR1B (human)): 81%
- per cent of control (LIMK1 (human)): 8.5%
- per cent of control (BRSK2 (human)): 100%
- per cent of control (RIOK1 (human)): 100%
- per cent of control (TESK1 (human)): 55%
- per cent of control (BRSK1 (human)): 76%
- per cent of control [3]: 96%
- per cent of control (CLK3 (human)): 100%
- per cent of control (CDK4 CCND3 (human)): 62%
- per cent of control (CSNK1A1 (human)): 100%
- per cent of control (SRPK2 (human)): 73%
- per cent of control (EPHB1 (human)): 20%
- per cent of control (OXSR1 (human)): 100%

Compound: CNC(=O)c1cc(Oc2ccc(NC(=O)Nc3ccc(Cl)c(C(F)(F)F)c3)cc2)ccn1
- per cent of control (TAOK1 (human)): 12%
- per cent of control (RET (human)): 0%
- per cent of control (ITK (human)): 100%
- per cent of control (CHUK (human)): 93%
- per cent of control (PLK2 (human)): 100%
- per cent of control (GRK7 (human)): 100%
- per cent of control (MAP3K11 (human)): 74%
- per cent of control (EIF2AK2 (human)): 74%
- per cent of control (CLK4 (human)): 30%
- per cent of control (HCK (human)): 14%
- per cent of control [1]: 0%
- per cent of control [2]: 100%
- per cent of control (STK33 (human)): 6%
- per cent of control (TYRO3 (human)): 100%
- per cent of control (RIOK3 (human)): 88%
- per cent of control (CSNK2A2 (human)): 82%
- per cent of control (ULK3 (human)): 100%
- per cent of control (MAP3K3 (human)): 97%
- per cent of control (PRKCI (human)): 100%
- per cent of control (MAP3K1 (human)): 89%
- per cent of control (CDK17 (human)): 13%
- per cent of control (EPHA3 (human)): 4%
- per cent of control (PRKX (human)): 98%
- per cent of control (EPHB3 (human)): 53%
- per cent of control (MKNK1 (human)): 1.6%
- per cent of control (SBK1 (human)): 100%
- per cent of control (ACVR1 (human)): 100%
- per cent of control (PRKD1 (human)): 100%
- per cent of control (BMPR1B (human)): 93%
- per cent of control (LIMK1 (human)): 7.6%
- per cent of control (BRSK2 (human)): 98%
- per cent of control (RIOK1 (human)): 100%
- per cent of control (TESK1 (human)): 72%
- per cent of control (BRSK1 (human)): 100%
- per cent of control [3]: 97%
- per cent of control (CLK3 (human)): 84%
- per cent of control (CDK4 CCND3 (human)): 100%
- per cent of control (CSNK1A1 (human)): 100%
- per cent of control (SRPK2 (human)): 100%
- per cent of control (EPHB1 (human)): 18%
- per cent of control (OXSR1 (human)): 100%
